Source: ChEMBL document CHEMBL5046248, “New Pqs Quorum Sensing System Inhibitor as an Antibacterial Synergist against Multidrug-Resistant Pseudomonas aeruginosa” (J Med Chem, 2022)
The source made the active and inactive calls. The rule behind the calls is not given here.

Experiments:
[1] = test system: Pseudomonas aeruginosa; experiment: Antibacterial activity against Pseudomonas aeruginosa PAO1 assessed as inhibition of biofilm formation for 24 hrs by crystal violet staining based assay; format: functional, organism-based; details: PAO1, 24 h
[2] = test system: Pseudomonas aeruginosa; experiment: Antibiofilm activity against Pseudomonas aeruginosa PAO1 assessed as effect on pyochelin production fluorescence at 1.25 to 20 uM by fluorescence assay; format: functional, organism-based; details: dose 1.25-20 µM

Structure (SMILES) | IC50 [1] | Activity [2]
COc1ccc(CC(=O)NCc2cc(=O)c(O)cn2O)cc1 | > 100 µM | 
CCCCn1c(C)cc(=O)c(O)c1CNC1CCCC1 | > 100 µM | 
CCCCCC(=O)NCc1cc(=O)c(O)cn1C | > 100 µM | 
CCCCCC(=O)NCc1c(O)c(=O)cc(C)n1CC | > 100 µM | 
CCCn1c(C)cc(=O)c(O)c1CNC1CCCC1 | > 100 µM | 
CCCCCCC(=O)NCc1c(O)c(=O)cc(C)n1CCCC | > 100 µM | 
Cn1cc(O)c(=O)cc1CNC(=O)Cc1ccc(F)cc1 | > 100 µM | 
CCn1c(C)cc(=O)c(O)c1CNC1CCCC1 | > 100 µM | 
CCCn1c(C)cc(=O)c(O)c1CNC(=O)c1ccc(C(F)(F)F)cc1 | > 100 µM | 
CCCCn1c(C)cc(=O)c(O)c1CNC(=O)c1ccc(C(F)(F)F)cc1 | 8.4 µM | 
Cc1c(O)c(=O)ccn1C |  | inactive
CC[C@H]1OC(=O)[C@H](C)[C@@H](O[C@H]2C[C@@](C)(OC)[C@@H](O)[C@H](C)O2)[C@H](C)[C@@H](O[C@@H]2O[C@H](C)C[C@H](N(C)C)[C@H]2O)[C@](C)(O)C[C@@H](C)CN(C)[C@H](C)[C@@H](O)[C@]1(C)O [AZITHROMYCIN] | 7.1 µM | 
O=C(NCc1cc(=O)c(O)cn1O)c1ccc(C(F)(F)F)cc1 | > 100 µM | 
CCCCCC(=O)NCc1cc(=O)c(O)cn1O | > 100 µM | 
CCCCCCC(=O)NCc1c(O)c(=O)cc(C)n1CC | > 100 µM | 
O=C(NCc1cc(=O)c(O)cn1O)c1ccccc1 | > 100 µM | 
CCn1c(C)cc(=O)c(O)c1CNC(=O)c1ccc(OC)cc1 | > 100 µM | 
CCCCn1c(C)cc(=O)c(O)c1CNc1ccc(OC)cc1 | 45.4 µM | 
CCCn1c(C)cc(=O)c(O)c1CNC(=O)Cc1ccc(F)cc1 | > 100 µM | 
CCCCCn1c(C)cc(=O)c(O)c1CNC(=O)c1ccc(OC)cc1 | 52.5 µM | 
COc1ccc(C(=O)NCc2cc(=O)c(O)cn2O)cc1 | > 100 µM | 
Cn1cc(O)c(=O)cc1CNC(=O)c1ccc(C(F)(F)F)cc1 | > 100 µM | 
COCCn1c(C)cc(=O)c(O)c1CNC(=O)c1ccc(OC)cc1 | > 100 µM | 
